US6737383B1, “Herbicidal oxadiazolidines” (priority 1999, dated 2004)

How the values were obtained:
[1] = tested on: guineagrass; test: Test D guineagrass; type: in vivo, Panicum maximum; conditions: Preemergence, 0 to 100 scale, 0 no injury, 100 complete control
Source text: (§1) Seeds, tubers, or plant parts of Alexandergrass (Brachiaria plantaginea), bermuda-grass (Cynodon dactylon), common pursiane (Portulaca oleracea), common ragweed (Ambrosia elatior), common groundsel (Senecio vulgaris), dallisgrass (Paspalum dilatatum), goosegrass (Eleusine indica), guineagrass (Panicum maximum), itchgrass (Rottboellia exaltata), Johnson grass (Sorghum halepense), large crabgrass (Digitaria sanguinalis), pitted morningglory (Ipomoea lacunosa), purple nutsedge (Cyperus rotundus), sandbur (Cenchrus echinatus), sourgrass (Trichachne insularis), Spanishneedles (Bidens bipinnata), surinam grass (Brachiaria decumbens) and tall mallow (Malva sylvestris) were planted into greenhouse pots of flats containing greenhouse planting medium. Plant species were grown in separate pots or individual compartments. Preemergence applications were made within one day of planting the seed or plant part.
(§2) Test chemicals were formulated in a non-phytotoxic solvent mixture which included a surfactant and applied preemergence to the surface of the pot containing seeds in a sandy loam soil. Untreated control pots and treated pots were placed in the greenhouse for growth and visually evaluated for injury 14 to 21 days after herbicide application. Plant response ratings, summarized in Table C, are based on a 0 to 100 scale where 0 is no injury and 100 is complete control. A dash (−) response means no test result.

[2] = tested on: purple nutsedge; test: Test D purple nutsedge; type: in vivo, Cyperus rotundus; conditions: Preemergence, 0 to 100 scale, 0 no injury, 100 complete control
Method in brief: (§3)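 Herbicide screen in the greenhouse. A non-phytotoxic solvent mixture with surfactant carried the test chemical; in pre-emergence tests it went onto the soil of pots seeded no more than a day earlier. Injury was scored by eye 14 to 21 days after application, 0 to 100.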

[3] = tested on: itchgrass; test: Test D itchgrass; type: in vivo, Rottboellia exaltata; conditions: Preemergence, 0 to 100 scale, 0 no injury, 100 complete control
Source text: as §1, §2

[4] = tested on: large crabgrass; test: Test D large crabgrass; type: in vivo, Digitaria sanguinalis; conditions: Preemergence, 0 to 100 scale, 0 no injury, 100 complete control
Method in brief: as §3

[5] = tested on: common ragweed; test: Test D common ragweed; type: in vivo, Ambrosia elatior; conditions: Preemergence, 0 to 100 scale, 0 no injury, 100 complete control
Method in brief: as §3

[6] = tested on: Johnson grass; test: Test D Johnson grass; type: in vivo, Sorghum halepense; conditions: Preemergence, 0 to 100 scale, 0 no injury, 100 complete control
Method in brief: as §3

[7] = tested on: goosegrass; test: Test D goosegrass; type: in vivo, Eleusine indica; conditions: Preemergence, 0 to 100 scale, 0 no injury, 100 complete control
Source text: as §1, §2

[8] = tested on: common groundsel; test: Test D common groundsel; type: in vivo, Senecio vulgaris; conditions: Preemergence, 0 to 100 scale, 0 no injury, 100 complete control
Source text: as §1, §2

[9] = tested on: pitted morningglory; test: Test D pitted morningglory; type: in vivo, Ipomoea lacunosa; conditions: Preemergence, 0 to 100 scale, 0 no injury, 100 complete control
Method in brief: as §3

[10] = tested on: surinam grass; test: Test D surinam grass; type: in vivo, Brachiaria decumbens; conditions: Preemergence, 0 to 100 scale, 0 no injury, 100 complete control
Source text: as §1, §2

[11] = tested on: Spanishneedles; test: Test D Spanishneedles; type: in vivo, Bidens bipinnata; conditions: Preemergence, 0 to 100 scale, 0 no injury, 100 complete control
Source text: as §1, §2

[12] = tested on: Green foxtail; test: Test D green foxtail; type: in vivo
Source text: as §1, §2

[13] = tested on: sandbur; test: Test D sandbur; type: in vivo, Cenchrus echinatus; conditions: Preemergence, 0 to 100 scale, 0 no injury, 100 complete control
Method in brief: as §3

[14] = tested on: dallisgrass; test: Test D dallisgrass; type: in vivo, Paspalum dilatatum; conditions: Preemergence, 0 to 100 scale, 0 no injury, 100 complete control
Method in brief: as §3

[15] = tested on: tall mallow; test: Test D tall mallow; type: in vivo, Malva sylvestris; conditions: Preemergence, 0 to 100 scale, 0 no injury, 100 complete control
Source text: as §1, §2

[16] = tested on: bermuda-grass; test: Test D bermudagrass; type: in vivo, Cynodon dactylon; conditions: Preemergence, 0 to 100 scale, 0 no injury, 100 complete control
Source text: as §1, §2

[17] = tested on: Alexandergrass; test: Test D Alexandergrass; type: in vivo, Brachiaria plantaginea; conditions: Preemergence, 0 to 100 scale, 0 no injury, 100 complete control
Source text: as §1, §2

[18] = Rate 64 g/ha, Preemergence; 0 to 100 scale, 0 no injury, 100 complete control
[19] = Rate 125 g/ha, Preemergence; 0 to 100 scale, 0 no injury, 100 complete control

Cc1cccc(C)c1-n1c(=O)on(C(=O)N(c2ccc(F)cc2)C(C)C)c1=O [Compound 18]
65: Plant response rating, Guineagrass ([1]; Rate 125 g/ha)
0: Plant response rating, Guineagrass ([1]; Rate 16 g/ha) | Plant response rating, Guineagrass ([1]; Rate 32 g/ha) | Plant response rating, Purple nutsedge ([2]; Rate 16 g/ha) | Plant response rating, Purple nutsedge ([2]; Rate 32 g/ha) | Purple nutsedge plant response rating ([2]; Rate 64 g/ha) | Purple nutsedge plant response rating ([2]; Rate 125 g/ha) | Plant response rating, Itchgrass ([3]; Rate 16 g/ha) | Plant response rating, Itchgrass ([3]; Rate 32 g/ha) | Plant response rating, Itchgrass ([3]; Rate 64 g/ha) | Plant response rating, Itchgrass ([3]; Rate 125 g/ha) | Plant response rating Large crabgrass ([4]; Rate 16 g/ha) | Plant response rating Large crabgrass ([4]; Rate 32 g/ha) | Plant response rating, C. ragweed ([5]; Rate 16 g/ha) | Plant response rating, C. ragweed ([5]; Rate 32 g/ha) | Plant response rating, C. ragweed ([5]; Rate 64 g/ha) | Plant response rating, C. ragweed ([5]; Rate 125 g/ha) | Plant response rating Johnsongrass ([6]; Rate 16 g/ha) | Plant response rating Johnsongrass ([6]; Rate 32 g/ha) | Plant response rating Johnsongrass ([6]; Rate 64 g/ha) | Plant response rating Johnsongrass ([6]; Rate 125 g/ha) | Plant response rating, Goosegrass ([7]; Rate 16 g/ha) | Plant response rating, Goosegrass ([7]; Rate 32 g/ha) | Plant response rating, Com. groundsel ([8]; Rate 16 g/ha) | Plant response rating, Com. groundsel ([8]; Rate 32 g/ha) | Plant response rating, Com. groundsel ([8]; Rate 64 g/ha) | Plant response rating, Com. groundsel ([8]; Rate 125 g/ha) | Plant response rating, P. morninglory ([9]; Rate 16 g/ha) | Plant response rating, P. morninglory ([9]; Rate 32 g/ha) | Plant response rating, P. morninglory ([9]; Rate 64 g/ha) | Plant response rating, P. morninglory ([9]; Rate 125 g/ha) | Plant response rating, Surinam grass ([10]; Rate 16 g/ha) | Plant response rating, Surinam grass ([10]; Rate 32 g/ha) | Surinam grass plant response rating ([10]; Rate 64 g/ha) | Plant response rating, Spanishneedles ([11]; Rate 16 g/ha) | Plant response rating, Spanishneedles ([11]; Rate 32 g/ha) | Spanishneedles plant response rating ([11]; Rate 64 g/ha) | Spanishneedles plant response rating ([11]; Rate 125 g/ha) | Plant response rating, Green foxtail ([12]; Preemergence; Rate 16 g/ha; 0 to 100 scale, 0 no injury, 100 complete control) | Plant response rating, Green foxtail ([12]; Preemergence; Rate 32 g/ha; 0 to 100 scale, 0 no injury, 100 complete control) | Plant response rating, Green foxtail ([12]; Rate 16 g/ha; Preemergence; 0 to 100 scale, 0 no injury, 100 complete control) | Plant response rating, Green foxtail ([12]; Rate 32 g/ha; Preemergence; 0 to 100 scale, 0 no injury, 100 complete control) | Plant response rating, Sandbur ([13]; Rate 16 g/ha) | Plant response rating, Sandbur ([13]; Rate 32 g/ha) | Sandbur plant response rating ([13]; Rate 64 g/ha) | Sandbur plant response rating ([13]; Rate 125 g/ha) | Plant response rating, Dallisgrass ([14]; Rate 16 g/ha) | Plant response rating, Dallisgrass ([14]; Rate 32 g/ha) | Plant response rating, Tall Mallow ([15]; Rate 16 g/ha) | Plant response rating, Tall Mallow ([15]; Rate 32 g/ha) | Tall Mallow plant response rating ([15]; Rate 64 g/ha) | Tall Mallow plant response rating ([15]; Rate 125 g/ha) | Plant response rating, Alexandergrass ([17]; Rate 16 g/ha) | Plant response rating, Alexandergrass ([17]; Rate 32 g/ha) | Plant response rating, Alexandergrass ([17]; Rate 64 g/ha)
85: Plant response rating, Goosegrass ([7]; Rate 64 g/ha) | Plant response rating, Goosegrass ([7]; Rate 125 g/ha) | Green foxtail plant response rating [12, 18] | Plant response rating, Green foxtail [12, 18] | Green foxtail plant response rating [12, 19] | Plant response rating, Green foxtail [12, 19] | Plant response rating, Dallisgrass ([14]; Rate 64 g/ha) | Plant response rating, Bermudagrass ([16]; Rate 64 g/ha)
98: Plant response rating Large crabgrass ([4]; Rate 64 g/ha)
30: Plant response rating, Guineagrass ([1]; Rate 64 g/ha) | Plant response rating, Alexandergrass ([17]; Rate 125 g/ha)
20: Surinam grass plant response rating ([10]; Rate 125 g/ha)
100: Plant response rating Large crabgrass ([4]; Rate 125 g/ha) | Plant response rating, Dallisgrass ([14]; Rate 125 g/ha) | Plant response rating, Bermudagrass ([16]; Rate 125 g/ha)
60: Plant response rating, Bermudagrass ([16]; Rate 32 g/ha)
40: Plant response rating, Bermudagrass ([16]; Rate 16 g/ha)

CCCn1c(=O)on(C(=O)N(c2ccc(F)cc2F)C(C)C)c1=O [Compound 130]
85: Tall Mallow plant response rating ([15]; Rate 64 g/ha)
100: Plant response rating, Guineagrass ([1]; Rate 64 g/ha) | Plant response rating Large crabgrass ([4]; Rate 64 g/ha) | Plant response rating, Goosegrass ([7]; Rate 64 g/ha) | Green foxtail plant response rating [12, 18] | Plant response rating, Green foxtail [12, 18] | Sandbur plant response rating ([13]; Rate 64 g/ha) | Plant response rating, Dallisgrass ([14]; Rate 64 g/ha) | Plant response rating, Bermudagrass ([16]; Rate 64 g/ha)
65: Plant response rating Johnsongrass ([6]; Rate 64 g/ha) | Plant response rating, P. morninglory ([9]; Rate 64 g/ha)
80: Plant response rating, Itchgrass ([3]; Rate 64 g/ha) | Surinam grass plant response rating ([10]; Rate 64 g/ha)
0: Purple nutsedge plant response rating ([2]; Rate 64 g/ha) | Plant response rating, Com. groundsel ([8]; Rate 64 g/ha)
30: Plant response rating, C. ragweed ([5]; Rate 64 g/ha)
98: Plant response rating, Alexandergrass ([17]; Rate 64 g/ha)
60: Spanishneedles plant response rating ([11]; Rate 64 g/ha)
